Source: patent publication US9297012B2, “Methods and compositions for inducing deregulation of EPHA7 and ERK phosphorylation in human acute leukemias” (The Ohio State University Research Foundation, priority 2007, dated 2016)

How the values were obtained:
Format in all cases: cell-based, human
RS4;11 cells [1] = assay: FACS analysis (subG1), RS4;11; conditions: 1 μM
Protocol: (§1) At each time point, the cells were subjected to MTT assay (left), Caspase 3 activity assay (middle) and FACS analysis (right). The results of MTT and Caspase 3 activity assays are calculated as a ratio against the value for DMSO-treated cells. Vertical bar in each column indicates standard deviation determined by triplicate assays.
(§2) To determine the cause for the reduction in cell numbers, the 5-ITU-treated cells were subjected to assays determining apoptotic cell death (caspase 3 activity assay and FACS analysis).
(§3) Methods including Recombinant protein expression in K562 and in KG1 cells, RNA interference, Western blot analysis, and MTT assay, Caspase 3 Activity assay and FACS analysis are available in online Supporting Information.

RS4;11 cells [2] = assay: Caspase 3 activity assay, RS4;11; conditions: 1 μM, 24 hr, ratio vs DMSO
Protocol: as §1, §2, §3

SEMK2 cells [3] = assay: FACS analysis (subG1), SEMK2; conditions: 1 μM
Protocol: as §1, §2, §3

380 cells = assay: MTT assay, 380; conditions: 380 control cells lacking ALL1 abnormality; 1 μM; 24, 48 and 72 hr
Protocol: as §1, §3

RS4;11 cells [4] = assay: MTT assay, RS4;11; conditions: RS4;11, t(4;11); 1 μM; 24, 48 and 72 hr; ratio vs DMSO
Protocol: as §1, §3

SEMK2 cells [5] = assay: Caspase 3 activity assay, SEMK2; conditions: 1 μM, 24 hr, ratio vs DMSO
Protocol: as §1, §2, §3

697 cells = assay: MTT assay, 697; conditions: 697 control cells lacking ALL1 abnormality; 1 μM; 24, 48 and 72 hr
Protocol: as §1, §3

SEMK2 cells [6] = assay: MTT assay, SEMK2; conditions: SEMK2, t(4;11); 1 μM; 24, 48 and 72 hr; ratio vs DMSO
Protocol: as §1, §3

**Q.** For `Nc1ncnc2c1c(I)cn2[C@@H]1O[C@H](CO)[C@@H](O)[C@H]1O` [5-ITU, 5-iodotubercidin], which “cells at the subG1 phase (FACS)” value (RS4;11 cells [1]) is on record?
**A.** The value was “high proportion”.

**Q.** And the “caspase 3 activity” value (RS4;11 cells [2])?
**A.** Its value is “Increased caspase 3 activity”.

**Q.** What about the “cells at the subG1 phase (FACS)” value (SEMK2 cells [3]) of the same compound?
**A.** Its value is “high proportion”.

**Q.** What about the “cell number (MTT assay)” value (380 cells) of the same compound?
**A.** The value was “no diminution in the number”.

**Q.** What about the “cell number (MTT assay)” value (RS4;11 cells [4]) of the same compound?
**A.** The value was “reduction in numbers”.

**Q.** What about the “caspase 3 activity” value (SEMK2 cells [5]) of the same compound?
**A.** Its value is “Increased caspase 3 activity”.

**Q.** And the “cell number (MTT assay)” value (697 cells)?
**A.** Its value is “no diminution in the number”.

**Q.** What about the “cell number (MTT assay)” value (SEMK2 cells [6]) of the same compound?
**A.** The value was “reduction in numbers”.
